Test results reported in patent US6914045B2, “Glycopeptide antibiotics” (Wyeth Holdings Corporation, priority 2001, dated 2005).
Converted amounts (≈) assume the structure as drawn.

How the values were obtained:
[1] = system: Enterococcus sp.; experiment: in vitro antibacterial evaluation, MIC by broth dilution; type: cell-based; conditions: broth dilution, 18 hours at 35° C.
Outline: (§1)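 MIC = lowest antibiotic concentration preventing visible growth; inoculum 5×10^5 CFU/mL; drug range 64-0.06 μg/mL; Muller-Hinton II […]; NCCLS M7-A2 guidance.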

[2] = system: Staphylococcus sp.; experiment: as above; type: cell-based; conditions: broth dilution, 18 hours at 35° C.
Outline: as §1

[3] = system: Streptococcus sp.; experiment: as above; type: cell-based; conditions: broth dilution, 18 hours at 35° C.
Outline: as §1

[4] = system: Staphylococcus aureus-SMITH (GC 4543); experiment: acute lethal infection in mice; type: in vivo; conditions: acute lethal infection, female CD-1 mice, intraperitoneal challenge, intravenous 30 min. after infection, 7 day survival
Outline: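 Mice (female CD-1, 20+/−2 gm) receive bacteria ip in broth or hog gastric mucin, then test agent iv after 30 min. Median effective dose is calculated from 7 day survival pooled across 3 tests.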

[5] = system: Escherichia coli; experiment: in vitro antibacterial evaluation, MIC by broth dilution; type: cell-based; conditions: 18 hours at 35° C.

`CCCOc1ccc(COCC2OC(OC3C(CO)OC(Oc4ccc(CC5NC(=O)C(C(C)c6ccccc6)NC(=O)CNC(=O)C(CO)NC(=O)C(C(O)C6CNC(=N)N6C6OC(CO)C(O)C(O)C6O)NC(=O)C(C(O)C6CNC(=N)N6)NC5=O)cc4)C(O)C3O)C(O)C(O)C2O)cc1` (stereo not drawn) [Example 235, Cyclo[glycyl-β-methylphenylalanyl-O-[4-O-[6-O-(4-propoxybenzyl)hexopyranosyl]hexopyranosyl]tyrosyl-3-(2-iminoimidazolidin-4-yl)seryl-3-(3-hexopyranosyl-2-iminoimidazolidin-4-yl)serylseryl]] was tested, and the “MIC Enterococcus avium (GC 4558)” value [1] was 4 mg/L (≈ 2.77 µM), the “MIC Enterococcus faecalis (ATCC 29212)” value [1] was 4 mg/L (≈ 2.77 µM) and the “MIC Enterococcus faecalis (GC 2242)” value [1] was 4 mg/L (≈ 2.77 µM). The “MIC Enterococcus faecalis (GC 2691)” value [1] was 4 mg/L (≈ 2.77 µM), the “MIC Enterococcus faecalis (GC 3059)” value [1] was 4 to 8 mg/L and the “MIC Enterococcus faecalis (GC 4552)” value [1] was 4 mg/L (≈ 2.77 µM). The “MIC Enterococcus faecalis (GC 4553)” value [1] was 4 mg/L (≈ 2.77 µM), the “MIC Enterococcus faecalis (GC 4554)” value [1] was 4 to 8 mg/L and the “MIC Enterococcus faecalis (GC 6189)” value [1] was 4 mg/L (≈ 2.77 µM). The “MIC Enterococcus faecium (GC 2243)” value [1] was 4 mg/L (≈ 2.77 µM), the “MIC Enterococcus faecium (GC 4556)” value [1] was 4 mg/L (≈ 2.77 µM) and the “MIC Enterococcus faecium (GC 4557)” value [1] was 0.5 to 2 mg/L. For the same compound, the “MIC Enterococcus faecalis (ATCC 29212)” value ([1]; strain ATCC 29212) was 4 mg/L (≈ 2.77 µM), the “MIC Enterococcus faecium (GC 2243)” value ([1]; strain GC 2243) was 4 mg/L (≈ 2.77 µM) and the “MIC Enterococcus faecalis (GC 4552)” value ([1]; strain GC 4552) was 4 mg/L (≈ 2.77 µM). The “MIC Enterococcus faecalis (GC 4553)” value ([1]; strain GC 4553) was 4 mg/L (≈ 2.77 µM), the “MIC Enterococcus faecalis (GC 4554)” value ([1]; strain GC 4554) was 4 to 8 mg/L and the “MIC Enterococcus faecium (GC 4556)” value ([1]; strain GC 4556) was 4 mg/L (≈ 2.77 µM). For the same compound, the “MIC Enterococcus faecium (GC 4557)” value ([1]; strain GC 4557) was 0.5 to 2 mg/L, the “MIC Enterococcus avium (GC 4558)” value ([1]; strain GC 4558) was 4 mg/L (≈ 2.77 µM) and the “MIC Enterococcus faecalis (GC 6189)” value ([1]; strain GC 6189) was 4 mg/L (≈ 2.77 µM). The “MIC Enterococcus faecalis (GC 2242)” value ([1]; inoculum 5×10^5 CFU/mL, strain GC 2242) was 4 mg/L (≈ 2.77 µM), the “MIC Enterococcus faecalis (GC 2691)” value ([1]; inoculum 5×10^5 CFU/mL, strain GC 2691) was 4 mg/L (≈ 2.77 µM) and the “MIC Enterococcus faecalis (GC 3059)” value ([1]; inoculum 5×10^5 CFU/mL, strain GC 3059) was 4 to 8 mg/L. The “MIC Coagulase Negative Staphylococcus (GC 4547)” value [2] was 0.5 to 1 mg/L, the “MIC Coagulase Negative Staphylococcus (GC 4548)” value [2] was 0.25 to 0.5 mg/L and the “MIC Coagulase Negative Staphylococcus (GC 4549)” value [2] was 0.25 to 0.5 mg/L. The “MIC Coagulase Negative Staphylococcus (GC 4551)” value [2] was 0.5 to 1 mg/L, the “MIC Coagulase Negative Staphylococcus (GC 6257)” value [2] was 0.25 to 0.5 mg/L and the “MIC Staphylococcus aureus (ATCC 29213)” value [2] was 0.5 to 1 mg/L. For the same compound, the “MIC Staphylococcus aureus (GC 1131)” value [2] was 1 to 2 mg/L, the “MIC Staphylococcus aureus (GC 3051)” value [2] was 0.5 to 2 mg/L and the “MIC Staphylococcus aureus (GC 3053)” value [2] was 1 to 2 mg/L. The “MIC Staphylococcus aureus (GC 4541)” value [2] was 0.5 to 1 mg/L, the “MIC Staphylococcus aureus (GC 4542)” value [2] was 0.5 to 2 mg/L and the “MIC Staphylococcus aureus (GC 4544)” value [2] was 1 to 2 mg/L. For the same compound, the “MIC Staphylococcus aureus (GC 4545)” value [2] was 1 to 2 mg/L, the “MIC Staphylococcus aureus-SMITH (GC 4543)” value [2] was 0.5 to 1 mg/L and the “MIC Staphylococcus haemolyticus (GC 4546)” value [2] was 0.25 to 0.5 mg/L. For the same compound, the “MIC Staphylococcus aureus (ATCC 29213)” value ([2]; strain ATCC 29213) was 0.5 to 1 mg/L, the “MIC Staphylococcus aureus (GC 1131)” value ([2]; strain GC 1131) was 1 to 2 mg/L and the “MIC Staphylococcus aureus (GC 3051)” value ([2]; strain GC 3051) was 0.5 to 2 mg/L. For the same compound, the “MIC Staphylococcus aureus (GC 3053)” value ([2]; strain GC 3053) was 1 to 2 mg/L, the “MIC Staphylococcus aureus (GC 4541)” value ([2]; strain GC 4541) was 0.5 to 1 mg/L and the “MIC Staphylococcus aureus (GC 4542)” value ([2]; strain GC 4542) was 0.5 to 2 mg/L. The “MIC Staphylococcus aureus-SMITH (GC 4543)” value ([2]; strain GC 4543) was 0.5 to 1 mg/L, the “MIC Staphylococcus aureus (GC 4544)” value ([2]; strain GC 4544) was 1 to 2 mg/L and the “MIC Staphylococcus aureus (GC 4545)” value ([2]; strain GC 4545) was 1 to 2 mg/L. The “MIC Staphylococcus haemolyticus (GC 4546)” value ([2]; strain GC 4546) was 0.25 to 0.5 mg/L, the “MIC Coagulase Negative Staphylococcus (GC 4547)” value ([2]; strain GC 4547) was 0.5 to 1 mg/L and the “MIC Coagulase Negative Staphylococcus (GC 4548)” value ([2]; strain GC 4548) was 0.25 to 0.5 mg/L. For the same compound, the “MIC Coagulase Negative Staphylococcus (GC 4549)” value ([2]; strain GC 4549) was 0.25 to 0.5 mg/L, the “MIC Coagulase Negative Staphylococcus (GC 4551)” value ([2]; strain GC 4551) was 0.5 to 1 mg/L and the “MIC Coagulase Negative Staphylococcus (GC 6257)” value ([2]; strain GC 6257) was 0.25 to 0.5 mg/L. The “MIC Streptococcus agalactiae (GC 4564)” value [3] was 0.25 to 0.5 mg/L, the “MIC Streptococcus pneumoniae (ATCC 6301)” value [3] was 0.12 mg/L (≈ 0.0831 µM) and the “MIC Streptococcus pneumoniae (GC 1894)” value [3] was less than 0.06 mg/L. The “MIC Streptococcus pneumoniae (GC 4565)” value [3] was less than 0.06 to 0.12 mg/L, the “MIC Streptococcus pyogenes (GC 4563)” value [3] was 0.25 mg/L (≈ 0.173 µM) and the “MIC Streptococcus pneumoniae (ATCC 6301)” value ([3]; inoculum 5×10^5 CFU/mL, strain ATCC 6301) was 0.12 mg/L (≈ 0.0831 µM). The “MIC Streptococcus pneumoniae (GC 1894)” value ([3]; inoculum 5×10^5 CFU/mL, strain GC 1894) was less than 0.06 mg/L, the “MIC Streptococcus pyogenes (GC 4563)” value ([3]; inoculum 5×10^5 CFU/mL, strain GC 4563) was 0.25 mg/L (≈ 0.173 µM) and the “MIC Streptococcus agalactiae (GC 4564)” value ([3]; inoculum 5×10^5 CFU/mL, strain GC 4564) was 0.25 to 0.5 mg/L. For the same compound, the “MIC Streptococcus pneumoniae (GC 4565)” value ([3]; inoculum 5×10^5 CFU/mL, strain GC 4565) was less than 0.06 to 0.12 mg/L, the median effective dose (ED50), Staphylococcus aureus-SMITH (GC 4543) [4] was 0.59 mg/kg and the “MIC Escherichia coli (GC 4560)” value [5] was 0.5 to 1 mg/L.
